From US20260217697A1, “COMPOUNDS COMPRISING HETEROARYL RINGS AND COMPOSITIONS AND METHODS THEREOF” (lonGen Therapeutics Co., Ltd., priority 2022, published 2026)
pIC50: −log10 of the molar value.

Molecular target: T1, hTRPV3 (Homo sapiens, UniProt Q8NET8)
T1 construct: The commercially available plasmid with the full-length cDNA of hTRPV3 (791 aa) (NM_001258205.2); host or cells: HEK293T
T1 sequence (Q8NET8 1-791 isoform Q8NET8-2): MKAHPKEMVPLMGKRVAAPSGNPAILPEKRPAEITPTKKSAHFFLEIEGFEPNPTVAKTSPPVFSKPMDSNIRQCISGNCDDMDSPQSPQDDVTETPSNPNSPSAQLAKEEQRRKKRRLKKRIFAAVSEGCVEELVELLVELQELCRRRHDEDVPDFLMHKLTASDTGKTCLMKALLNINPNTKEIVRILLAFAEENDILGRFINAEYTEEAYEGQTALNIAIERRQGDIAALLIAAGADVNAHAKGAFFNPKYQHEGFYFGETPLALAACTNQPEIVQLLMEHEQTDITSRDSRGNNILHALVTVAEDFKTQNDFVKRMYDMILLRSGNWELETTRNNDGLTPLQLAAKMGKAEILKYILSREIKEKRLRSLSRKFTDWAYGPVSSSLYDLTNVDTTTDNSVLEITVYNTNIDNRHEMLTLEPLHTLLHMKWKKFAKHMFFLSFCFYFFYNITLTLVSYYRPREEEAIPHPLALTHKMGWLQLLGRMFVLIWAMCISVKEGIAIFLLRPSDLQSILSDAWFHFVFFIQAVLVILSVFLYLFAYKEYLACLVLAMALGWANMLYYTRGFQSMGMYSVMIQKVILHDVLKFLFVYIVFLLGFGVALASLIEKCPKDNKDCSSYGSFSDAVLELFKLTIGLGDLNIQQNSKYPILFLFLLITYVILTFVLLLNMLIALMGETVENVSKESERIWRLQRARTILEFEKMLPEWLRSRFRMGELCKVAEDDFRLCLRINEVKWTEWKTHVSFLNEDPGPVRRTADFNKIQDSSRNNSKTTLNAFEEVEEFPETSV
Assay: Whole-cell patch-clamp recording of hTRPV3 current in transfected HEK293T cells (2-APB induced)
Assay type: cell-based
Settings: current induced by 300 μM 2-APB, compounds tested up to 10 μM, room temperature
Procedure: Various technologies can be utilized to assess TRPV3 activation in accordance with the present disclosure. For example, in some embodiments, compounds are assessed in in vitro patch clamp experiments. Certain useful procedures are described herein as examples.
In some embodiments, whole-cell patch-clamp recordings were used to detect the current through hTRPV3 channels in the HEK293T cell line transfected with hTRPV3 cDNA and evaluate the exact blocking effect of compounds on hTRPV3. In some embodiments, a perfusion system was adopted to control the extracellular solution, including the addition of the agonist and different antagonists.
HEK293T cells were cultured in a Dulbecco's modified Eagle's medium containing 10% fetal bovine serum (Thermo Scientific) and 1% penicillin/streptomycin (Thermo Scientific) at 37° C. with 5% CO2. The commercially available plasmid with the full-length cDNA of hTRPV3 (791 aa) (NM_001258205.2) was purchased from OriGene Technologies. The transfection of hTRPV3 plasmids was conducted using Lipofectamine™ 3000 following the manufacturer's instructions (Invitrogen).
Whole-cell patch-clamp experiments were performed 18 h post-transfection, using a MultiClamp 700B amplifier driven by pClamp 11 software (Molecular Devices). In order to achieve good single-cell physical separation, HEK293T cells with hTRPV3 expression were digested and then re-plated at low density on glass coverslips. Electrodes were pulled from borosilicate glass with a P-97 micropipette puller (Sutter Instruments) and those with resistances of 3-5 MΩ are used for experiments. In some embodiments, an Ag—AgCl wire was used as a reference electrode and signals are filtered using a 2.9 kHz low-pass Bessel filter. Membrane potential was held at 0 mV. For recording of agonist-induced activation and inhibition by different test compounds, currents were elicited by a protocol consisting of a 400-ms step to +80 mV, followed by a 400-ms step to −80 mV at 2-s intervals. both pipette and bath solutions contained 130 mM NaCl, 0.3 mM EDTA, and 3 mM HEPES (buffered to pH 7.4 with NaOH). All recordings were made at room temperature.
All patch-clamp recordings were analyzed using the Clampfit software and GraphPad Prism 6.0 software. Specifically, data are analyzed by calculating the degree of current amplitude after the test compound addition compared with the unblocked agonist-induced current amplitude. The resulting blocking percentage at each concentration was used to make a concentration-response analysis and fitted to the Hill equation: blocking percentage=minimum blocking percentage+ (maximum blocking percentage-minimum blocking percentage)/(1+10^(Hill slope* […])). The minimum blocking percentage is 0% and maximum blocking percentage is 100%, while the Hill slope and the IC50 were determined as the curve fitting routine. Compounds of interest were tested against hTRPV3 at concentrations up to 10 μM, and certain data was used to estimate IC50 as described herein.

| pIC50 | SMILES |
| --- | --- |
| 6.00 to 7.00 | CCOc1ncnc(OCC)c1C(=O)Nc1nc2c(s1)C(CC)(CC)Oc1cc(C(F)(F)F)ccc1-2 [compound 47, N-(4,4-diethyl-7-(trifluoromethyl)-4H-chromeno[4,3-d]thiazol-2-yl)-4,6-diethoxypyrimidine-5-carboxamide] |
| ≤ 5.00 | CCC1(CC)Oc2cc(C(F)(F)F)ccc2-c2nc(NC(=O)c3c(OCC(F)(F)F)ncnc3OCC(F)(F)F)sc21 [compound 48, N-(4,4-diethyl-7-(trifluoromethyl)-4H-chromeno[4,3-d]thiazol-2-yl)-4,6-bis(2,2,2-trifluoroethoxy)pyrimidine-5-carboxamide] |
| 5.00 to 6.00 | CCC1(CC)Oc2cc(Br)ccc2-c2nc(NC(=O)c3c(OC)ncnc3OC)sc21 [compound 49, N-(7-bromo-4,4-diethyl-4H-chromeno[4,3-d]thiazol-2-yl)-4,6-dimethoxypyrimidine-5-carboxamide] |
| 6.00 to 7.00 | CCC1(CC)Oc2cc(C#N)ccc2-c2nc(NC(=O)c3c(OC)ncnc3OC)sc21 [compound 50, N-(7-cyano-4,4-diethyl-4H-chromeno[4,3-d]thiazol-2-yl)-4,6-dimethoxypyrimidine-5-carboxamide] |
| ≤ 5.00 | CCC1(CC)Oc2cc3c(cc2-c2nc(NC(=O)c4c(OC)ncnc4OC)sc21)OCO3 [compound 51, N-(4,4-diethyl-4H-[1,3]dioxolo[4′,5′: 6,7]chromeno[4,3-d]thiazol-2-yl)-4,6-dimethoxypyrimidine-5-carboxamide] |
| 5.00 to 6.00 | CCC1(CC)Oc2cc(C(F)(F)F)ccc2-c2nc(NC(=O)c3c(C)ncnc3C)sc21 [compound 52, N-(4,4-diethyl-7-(trifluoromethyl)-4H-chromeno[4,3-d]thiazol-2-yl)-4,6-dimethylpyrimidine-5-carboxamide] |
| ≤ 5.00 | CCC1(CC)Oc2cc(C(F)(F)F)ccc2-c2nc(N(C)C(=O)c3c(OC)ncnc3OC)sc21 [compound 53] |
| 6.00 to 7.00 | CCC1(CC)Oc2cc(C3CC3)ccc2-c2nc(NC(=O)c3c(OC)ncnc3OC)sc21 [compound 54, N-(7-cyclopropyl-4,4-diethyl-4H-chromeno[4,3-d]thiazol-2-yl)-4,6-dimethoxypyrimidine-5-carboxamide] |
| 6.00 to 7.00 | C=C(C)c1ccc2c(c1)OC(CC)(CC)c1sc(NC(=O)c3c(OC)ncnc3OC)nc1-2 [compound 55, N-(4,4-diethyl-7-(prop-1-en-2-yl)-4H-chromeno[4,3-d]thiazol-2-yl)-4,6-dimethoxypyrimidine-5-carboxamide] |
| ≤ 5.00 | CCC1(CC)Oc2cc(C(F)(F)F)ccc2-c2nc(NS(=O)(=O)c3c(OC)ncnc3OC)sc21 [compound 56] |
| 6.00 to 7.00 | CCC1(CC)Oc2cc(C(F)(F)F)ccc2-c2nc(NC(=O)c3c(C)ncnc3OC)sc21 [compound 57, N-(4,4-diethyl-7-(trifluoromethyl)-4H-chromeno[4,3-d]thiazol-2-yl)-4-methoxy-6-methylpyrimidine-5-carboxamide] |
| 5.00 to 6.00 | CCC1(CC)Oc2cc(N3CCOCC3)ccc2-c2nc(NC(=O)c3c(OC)ncnc3OC)sc21 [compound 58, N-(4,4-diethyl-7-morpholino-4H-chromeno[4,3-d]thiazol-2-yl)-4,6-dimethoxypyrimidine-5-carboxamide] |
| 6.00 to 7.00 | COc1ncnc(OC)c1C(=O)Nc1nc2c(s1)C1(CCOCC1)Oc1cc(C(F)(F)F)ccc1-2 [compound 59, 4,6-dimethoxy-N-(7-(trifluoromethyl)-2′,3′,5′,6′-tetrahydrospiro[chromeno[4,3-d]thiazole-4,4′-pyran]-2-yl)pyrimidine-5-carboxamide] |
| 6.00 to 7.00 | CCC1(CC)Oc2nc(C(F)(F)F)ccc2-c2nc(NC(=O)c3c(OC)ncnc3OC)sc21 [compound 60, N-(4,4-diethyl-7-(trifluoromethyl)-4H-thiazolo[4′,5′: 4,5]pyrano[2,3-b]pyridin-2-yl)-4,6-dimethoxypyrimidine-5-carboxamide] |
| 5.00 to 6.00 | CCC1(CC)Oc2cc(C(C)(C)O)ccc2-c2nc(NC(=O)c3c(OC)ncnc3OC)sc21 [compound 61, N-(4,4-diethyl-7-(2-hydroxypropan-2-yl)-4H-chromeno[4,3-d]thiazol-2-yl)-4,6-dimethoxypyrimidine-5-carboxamide] |
| 5.00 to 6.00 | CCOC(=O)c1ccc2c(c1)OC(CC)(CC)c1sc(NC(=O)c3c(OC)ncnc3OC)nc1-2 [compound 62, ethyl 2-(4,6-dimethoxypyrimidine-5-carboxamido)-4,4-diethyl-4H-chromeno[4,3-d]thiazole-7-carboxylate] |
| > 7.00 | COc1ncnc(OC)c1C(=O)Nc1nc2c(s1)C1(CN(C(=O)OC(C)(C)C)C1)Oc1cc(C(F)(F)F)ccc1-2 [compound 63, tert-butyl 2′-(4,6-dimethoxypyrimidine-5-carboxamido)-7′-(trifluoromethyl)spiro[azetidine-3,4′-chromeno[4,3-d]thiazole]-1-carboxylate] |
| 6.00 to 7.00 | COc1ncnc(OC)c1C(=O)Nc1nc2c(s1)C1(CCN(C(C)=O)CC1)Oc1cc(C(F)(F)F)ccc1-2 [compound 64, N-(1′-acetyl-7-(trifluoromethyl)spiro[chromeno[4,3-d]thiazole-4,4′-piperidin]-2-yl)-4,6-dimethoxypyrimidine-5-carboxamide] |
| 6.00 to 7.00 | COc1ncnc(OC)c1C(=O)Nc1nc2c(s1)C1(COC1)Oc1cc(C(F)(F)F)ccc1-2 [compound 65, 4,6-dimethoxy-N-(7-(trifluoromethyl)spiro[chromeno[4,3-d]thiazole-4,3′-oxetan]-2-yl)pyrimidine-5-carboxamide] |
| 6.00 to 7.00 | COCC1(COC)Oc2cc(C(F)(F)F)ccc2-c2nc(NC(=O)c3c(OC)ncnc3OC)sc21 [compound 66, N-(4,4-bis(methoxymethyl)-7-(trifluoromethyl)-4H-chromeno[4,3-d]thiazol-2-yl)-4,6-dimethoxypyrimidine-5-carboxamide] |
| ≤ 5.00 | COc1ncnc(OC)c1C(=O)Nc1nc2c(s1)C1(CNC1)Oc1cc(C(F)(F)F)ccc1-2 [compound 67, 4,6-dimethoxy-N-(7′-(trifluoromethyl)spiro[azetidine-3,4′-chromeno[4,3-d]thiazol]-2′-yl)pyrimidine-5-carboxamide] |
| 5.00 to 6.00 | COc1ncnc(OC)c1C(=O)Nc1nc2c(s1)C1(CN(C(C)=O)C1)Oc1cc(C(F)(F)F)ccc1-2 [compound 68, N-(1-acetyl-7′-(trifluoromethyl)spiro[azetidine-3,4′-chromeno[4,3-d]thiazol]-2′-yl)-4,6-dimethoxypyrimidine-5-carboxamide] |
| 6.00 to 7.00 | COc1ncnc(OC)c1C(=O)Nc1nc2c(s1)C1(CCN(C(=O)C3CC3)CC1)Oc1cc(C(F)(F)F)ccc1-2 [compound 69, N-(1′-(cyclopropanecarbonyl)-7-(trifluoromethyl)spiro[chromeno[4,3-d]thiazole-4,4′-piperidin]-2-yl)-4,6-dimethoxypyrimidine-5-carboxamide] |
| 6.00 to 7.00 | CCC1(CC)Oc2cc(C(F)(F)F)ccc2-c2nc(NC(=O)c3c(OC)ncnc3OCCOC)sc21 [compound 70, N-(4,4-diethyl-7-(trifluoromethyl)-4H-chromeno[4,3-d]thiazol-2-yl)-4-methoxy-6-(2-methoxyethoxy)pyrimidine-5-carboxamide] |
